Reference: paper PMC11909088, “Synthesis, molecular docking and molecular dynamics simulations, drug-likeness studies, ADMET prediction and biological evaluation of novel pyrazole-carboxamides bearing sulfonamide moiety as potent carbonic anhydrase inhibitors” (Molecular Diversity, 2024)

Key:
hCA II = hCA II (Homo sapiens, UniProt P00918); experiment: Esterase activity inhibition of hCA II purified from human erythrocytes (IC50, Ki); assay type: biochemical; conditions: for Inhibition Type hCA II / Ki: Lineweaver-Burk plot; for Ki / IC50: NI = No Inhibition; for IC50: mean from three assays, spectrophotometric; for inhibition effect on hCA II (in words): esterase activity
Method: (§1) Esterase activities of purified hCA I and hCA II were determined according to the literature. Activity measurement has described in detail in our previous studies.
(§2) The method for determination of Ki values has described in detail in our previous studies. […] The data have linearized with Lineweaver–Burk plot in order to obtain Ki values.
(§3) IC50 and Ki values were expressed by averaging the results from triplicate experiments.
(§4) The enzymatic reaction, in a total volume of 3.0 mL, contained 1.4 mL of 0.05 M TRIS–SO4 buffer (pH 7.4), 1.0 mL of 3.0 mM 4-nitrophenylacetate, 0.5 mL H2O and 0.1 mL enzyme solution. A reference measurement was obtained by preparing the same cuvette without enzyme solution [46–49, 53].
(§5) Regression analysis graphs were drawn by plotting the percent enzyme activity versus inhibitor concentration and IC50 values were calculated.
(§6) Enzyme activity was also measured in the presence of the same substrate concentrations but in the absence of any inhibitor to determine the Vmax.

hCA I = hCA I (Homo sapiens, UniProt P00915); experiment: Esterase activity inhibition of hCA I purified from human erythrocytes (IC50, Ki); assay type: biochemical; conditions: for Inhibition Type hCA I / Ki: Lineweaver-Burk plot; for Ki / IC50: NI = No Inhibition; for IC50: mean from three assays, spectrophotometric; for inhibition effect on hCA I (in words): esterase activity
hCA I, sequence (P00915 whole entry): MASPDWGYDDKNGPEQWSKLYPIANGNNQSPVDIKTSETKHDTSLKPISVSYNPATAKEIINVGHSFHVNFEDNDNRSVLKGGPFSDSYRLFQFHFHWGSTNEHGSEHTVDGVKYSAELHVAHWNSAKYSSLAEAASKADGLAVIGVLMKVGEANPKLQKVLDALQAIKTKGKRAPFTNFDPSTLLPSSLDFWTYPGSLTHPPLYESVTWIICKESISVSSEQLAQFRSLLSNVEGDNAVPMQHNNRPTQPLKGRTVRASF
Method: as §1, §2, §3, §4, §5, §6

| Structure (SMILES) | Inhibition Type hCA II (hCA II) | Ki (hCA II) | stronger inhibitory effect than AAZ for hCA II (hCA II; compared with reference compound AAZ) | IC50 (hCA II) | Inhibition Type hCA I (hCA I) | Ki (hCA I) | IC50 (hCA I) | melting point | inhibition effect on hCA II (in words) (hCA II) | inhibition effect on hCA I (in words) (hCA I) | maximal decrease of hCA I activity (hCA I; at most) |
| --- | --- | --- | --- | --- | --- | --- | --- | --- | --- | --- | --- |
| NS(=O)(=O)c1cccc(NC(=O)c2nn(-c3ccccc3)c(-c3ccccc3)c2C(=O)c2ccccc2)c1 [Compound 6b, 4-benzoyl-1,5-diphenyl-N-(3-sulfamoylphenyl)-1H-pyrazole-3-carboxamide] | Non competitive | 0.03 µM | approximately fivefold | 0.139 µM | Non competitive | 0.237 µM | 0.463 µM | – | – | – | – |
| NS(=O)(=O)c1ccccc1NC(=O)c1nn(-c2ccccc2)c(-c2ccccc2)c1C(=O)c1ccccc1 [Compound 6c, 4-benzoyl-1,5-diphenyl-N-(2-sulfamoylphenyl)-1H-pyrazole-3-carboxamide] | Non competitive | 4.23 µM | – | 6.41 µM | Non competitive | 3.37 µM | 6.2 µM | 233 to 235 °C | – | – | – |
| O=C(Nc1ccc(S(=O)(=O)Nc2ccccn2)cc1)c1nn(-c2ccccc2)c(-c2ccccc2)c1C(=O)c1ccccc1 [Compound 6d, 4-benzoyl-1,5-diphenyl-N-(4-(N-(pyridin-2-yl)sulfamoyl)phenyl)-1H-pyrazole-3-carboxamide] | – | – | – | – | – | – | – | 239 to 241 °C | did not show any inhibition effect | did not show any inhibition effect | – |
| O=C(Nc1ccc(S(=O)(=O)Nc2ncccn2)cc1)c1nn(-c2ccccc2)c(-c2ccccc2)c1C(=O)c1ccccc1 [Compound 6e, 4-benzoyl-1,5-diphenyl-N-(4-(N-(pyrimidin-2-yl)sulfamoyl)phenyl)-1H-pyrazole-3-carboxamide] | – | – | – | – | – | – | – | 244 to 246 °C | did not show any inhibition effect | did not show any inhibition effect | – |
| Cc1ccnc(NS(=O)(=O)c2ccc(NC(=O)c3nn(-c4ccccc4)c(-c4ccccc4)c3C(=O)c3ccccc3)cc2)n1 [Compound 6f, 4-benzoyl-N-(4-(N-(4-methylpyrimidin-2-yl)sulfamoyl)phenyl)-1,5-diphenyl-1H-pyrazole-3-carboxamide] | – | – | – | – | – | – | – | 237 to 239 °C | did not show any inhibition effect | did not show any inhibition effect | – |
| Cc1noc(NS(=O)(=O)c2ccc(NC(=O)c3nn(-c4ccccc4)c(-c4ccccc4)c3C(=O)c3ccccc3)cc2)c1C [Compound 6g, 4-benzoyl-N-(4-(N-(3,4-dimethylisoxazol-5-yl)sulfamoyl)phenyl)-1,5-diphenyl-1H-pyrazole-3-carboxamide] | – | – | – | – | – | – | 1.66 µM | 165 to 167 °C | – | – | ≤ 50% |
| O=C(Nc1ccc(S(=O)(=O)Nc2nccs2)cc1)c1nn(-c2ccccc2)c(-c2ccccc2)c1C(=O)c1ccccc1 [Compound 6h, 4-benzoyl-1,5-diphenyl-N-(4-(N-(thiazol-2-yl)sulfamoyl)phenyl)-1H-pyrazole-3-carboxamide] | – | – | – | – | – | – | – | 252 to 254 °C | did not inhibit | – | – |
| N=C(N)NS(=O)(=O)c1ccc(NC(=O)c2nn(-c3ccccc3)c(-c3ccccc3)c2C(=O)c2ccccc2)cc1 [Compound 6i, 4-benzoyl-N-(4-(N-carbamimidoylsulfamoyl)phenyl)-1,5-diphenyl-1H-pyrazole-3-carboxamide] | – | – | – | – | – | – | – | 280 to 282 °C | did not show any inhibition effect | did not show any inhibition effect | – |
